Data from patent US20250160275A1, “COMPOUNDS FOR MODIFYING MEIOTIC RECOMBINATION AND METHODS RELATING THERETO” (The University of North Carolina at Chapel Hill, priority 2022, published 2025).

Assays:
[1] = system: rice (Kitaake x Nipponbare F1 plants); assay: meiotic recombination in rice F1 plants, recombinant reads in sequenced pollen DNA; assay type: in vivo, Oryza sativa subspecies japonica; details: 7.5 mM whole-plant spray at panicle stage, 10% DMSO and 0.01% Silwet; pollen harvested after 5-7 days
From the text: Meiotic recombination was stimulated in rice by external application of phenethyl isothiocyanate (IUPAC name: 2-isothiocyanatoethylbenzene). First, two parental rice lines, “Oryza sativa subspecies japonica variety Kitaake” (“Kitaake” hereafter) and “Oryza sativa subspecies japonica variety Nipponbare” (“Nipponbare” hereafter) were manually crossed to produce F1 seeds. F1 seeds were germinated and grown to produce F1 plants. PCR was used to genotype the F1 plants and confirm their heterozygosity. When F1 plants produced panicles (inflorescences) they were treated by spraying the whole plant, until saturation, with 7.5 mM phenethyl isothiocyanate in an aqueous solution containing 10% DMSO and 0.01% Silwet. The phenethyl isothiocyanate was first dissolved in 100% DMSO and then diluted to its final concentration with 0.0.1% Silwet in water. Control plants were mock-treated with 10% DMSO and 0.01% Silwet. […] Reads that spanned at least two parental SNPs were selected and binned into those that contained SNPs of only the Kitaake type (non-recombinant), only the Nipponbare type (non-recombinant) or both Kitaake and Nipponbare type (recombinant). The frequency of recombinant reads from treated and untreated plants were compared to detect an increase in meiotic recombination resulting from treatment with phenethyl isothiocyanate.

[2] = system: flowering Arabidopsis thaliana plants; assay: visual fluorescent pollen transgene assay, crossover frequency in interval I5d (chromosome 5); assay type: in vivo; details: 10% DMSO and 0.01% Silwet; for genetic map distance: p-value 0.000
Procedure: An aqueous solution of 3-aminobutanoic acid was applied to flowering Arabidopsis thaliana plants to enhance the frequency of meiotic recombination (crossovers). Silwet, a spraying adjuvant, was added to the 3-aminobutanoic acid solution at a volume/volume concentration of 0.01%. The solution was applied to the plants by foliar spraying until the plants were drenched. Several concentrations of 3-aminobutanoic acid were used including 0.1, 1, 7.5, 10, 12.5 and 15 mM. As a control, other plants (i.e., control plants) were treated with an aqueous 0.01% solution of Silwet by foliar spraying the solution on the plants until the plants were drenched.
(§1) Crossover frequencies were measured in pollen from treated and control plants using a visual fluorescent pollen transgene assay as described in Francis et al., Proc Natl Acad Sci USA. 2007; 104 (10): 3913-3918. In this assay pollen tetrads are scored as Parental Ditype (PD), Nonparental Ditype (NPD) or Tetratype (TT) and the frequency of those tetrad classes are used to calculate a genetic map distances in centiMorgans (cM) between reporter genes expressing fluorescent proteins. The genetic map distances between a pair of markers on chromosome 5 were compared between control plants and treated plants. The genetic interval between the two markers was designated as I5d. […] In Table 2, each experimental treatment is paired with data from control plants that were treated and scored together and designated with an experiment number in the first column.
An aqueous solution phenethyl isothiocyanate (IUPAC name: 2-isothiocyanatoethylbenzene) was applied to flowering Arabidopsis thaliana plants to enhance the frequency of meiotic recombination (crossovers). Phenethyl isothiocyanate in an aqueous solution containing 10% DMSO and 0.01% Silwet was applied by foliar spray until the plants were drenched. The phenethyl isothiocyanate was first dissolved in 100% DMSO and then diluted to its final concentration with 0.0.1% Silwet in water. Several concentrations of phenethyl isothiocyanate were used including 7.5, 10, and 12.5 mM. Control plants were treated with an aqueous solution of 10% DMSO and 0.01% Silwet by foliar spraying the solution on the control plants until the control plants were drenched.
as §1, with “4,” for “2,”
An aqueous solution BIX-01294 (IUPAC name: N-(1-benzylpiperidin-4-yl)-6,7-dimethoxy-2-(4-methyl-1,4-diazepan-1-yl) quinazolin-4-amine) was applied to flowering Arabidopsis thaliana plants to enhance the frequency of meiotic recombination (crossovers). BIX-01294 in an aqueous solution containing 10% DMSO and 0.01% Silwet was applied by foliar spray until the plants were drenched. The BIX-01294 was first dissolved in 100% DMSO and then diluted to its final concentration with 0.0.1% Silwet in water. Several concentrations of […] were used including 0.5, 1, 2.5 and 5 mM. Control plants were treated with an aqueous solution of 10% DMSO and 0.01% Silwet by foliar spraying the solution on the control plants until the control plants were drenched. […]

S=C=NCCc1ccccc1 [phenethyl isothiocyanate, 2-isothiocyanatoethylbenzene]
meiotic recombination in rice [1]: stimulated | NPD (Nonparental Ditype pollen tetrads) ([2]; 7.5 mM foliar spray, Exp.(2)): 2 | PD (Parental Ditype pollen tetrads) ([2]; 7.5 mM foliar spray, Exp.(2)): 978 | TT (Tetratype pollen tetrads) ([2]; 7.5 mM foliar spray, Exp.(2)): 211 | genetic map distance ([2]; 7.5 mM foliar spray, Exp.(2), DMSO control 5.90 cM): 9.36 cM | NPD (Nonparental Ditype pollen tetrads) ([2]; 10 mM foliar spray, Exp.(1)): 0 | PD (Parental Ditype pollen tetrads) ([2]; 10 mM foliar spray, Exp.(1)): 1840 | TT (Tetratype pollen tetrads) ([2]; 10 mM foliar spray, Exp.(1)): 370 | genetic map distance ([2]; 10 mM foliar spray, Exp.(1), DMSO control 5.77 cM): 8.37 cM | NPD (Nonparental Ditype pollen tetrads) ([2]; 12.5 mM foliar spray, Exp.(2)): 0 | PD (Parental Ditype pollen tetrads) ([2]; 12.5 mM foliar spray, Exp.(2)): 868 | TT (Tetratype pollen tetrads) ([2]; 12.5 mM foliar spray, Exp.(2)): 200 | genetic map distance ([2]; 12.5 mM foliar spray, Exp.(2), DMSO control 5.90 cM): 9.36 cM | meiotic recombination in treated plants compared to controls ([2]; all concentrations (7.5, 10, 12.5 mM)): increase meiotic recombination
